# In patent publication US20240092835A1, “NOVEL PEPTIDES CAPABLE OF ALTERING NK CELL ACTIVITY” (Massachusetts Institute of Technology, priority 2022, published 2024):
# Assays:
# Format in all cases: cell-based, human
# NKG2A+/NKG2C− NK cells = test: NK cell activation markers in NKG2A+/NKG2C- NK cells incubated with peptide and K562 expressing HLA-E (inhibition); conditions: NKG2A+/NKG2C- NK cells, K562/HLA-E
# Description: (§1) A human immortalized myelogenous leukemia cell line (K562), which expresses HLA-E was incubated with novel peptides (Table 1) derived from the human proteome or human cytomegalovirus proteome. […] Controls assessments were also performed using NKG2A−/NKG2C− cells (Tables 10-13). Inhibition was indicated by a decrease in percent cells positive for cell surface markers, while activation was indicated by an increase in percent cells positive for cell surface markers.
# NKG2A−/NKG2C+ NK cells = test: NK cell activation markers in NKG2A-/NKG2C+ NK cells incubated with peptide and K562 expressing HLA-E (activation); conditions: NKG2A-/NKG2C+ NK cells, K562/HLA-E
# Description: as §1
# NKG2A−/NKG2C− NK cells = test: NK cell activation markers in control NKG2A-/NKG2C- NK cells incubated with peptide and K562 expressing HLA-E
# Description: as §1
sequence,measurement,setting,value
"VMAPRTLIL [VMAPRTLIL (LIL), positive control peptide, reference compound]",percentage of CCL3+ NK cells,NKG2A+/NKG2C− NK cells; Trial 1,1.59%
same,percentage of CD107a+ NK cells,NKG2A+/NKG2C− NK cells; Trial 1,0.35%
same,percentage of IFNG+ NK cells,NKG2A+/NKG2C− NK cells; Trial 1,0%
same,percentage of TNF+ NK cells,NKG2A+/NKG2C− NK cells; Trial 1,0%
same,percentage of CCL3+ NK cells,NKG2A+/NKG2C− NK cells; Trial 2,14.4%
same,percentage of CD107a+ NK cells,NKG2A+/NKG2C− NK cells; Trial 2,2.73%
same,percentage of IFNG+ NK cells,NKG2A+/NKG2C− NK cells; Trial 2,0.59%
same,percentage of TNF+ NK cells,NKG2A+/NKG2C− NK cells; Trial 2,0.39%
same,percentage of CCL3+ NK cells,NKG2A+/NKG2C− NK cells; Trial 3,4.32%
same,percentage of CD107a+ NK cells,NKG2A+/NKG2C− NK cells; Trial 3,1.95%
same,percentage of IFNG+ NK cells,NKG2A+/NKG2C− NK cells; Trial 3,0.87%
same,percentage of TNF+ NK cells,NKG2A+/NKG2C− NK cells; Trial 3,0.46%
same,percentage of CCL3+ NK cells,NKG2A+/NKG2C− NK cells; Trial 4,0.75%
same,percentage of CD107a+ NK cells,NKG2A+/NKG2C− NK cells; Trial 4,0.77%
same,percentage of IFNG+ NK cells,NKG2A+/NKG2C− NK cells; Trial 4,0.08%
same,percentage of TNF+ NK cells,NKG2A+/NKG2C− NK cells; Trial 4,0.08%
same,percentage of CCL3+ NK cells,NKG2A+/NKG2C− NK cells; Trial 5,1.56%
same,percentage of CD107a+ NK cells,NKG2A+/NKG2C− NK cells; Trial 5,0.56%
same,percentage of IFNG+ NK cells,NKG2A+/NKG2C− NK cells; Trial 5,0.06%
same,percentage of TNF+ NK cells,NKG2A+/NKG2C− NK cells; Trial 5,0.06%
same,percentage of CCL3+ NK cells,NKG2A+/NKG2C− NK cells; Trial 6,0.92%
same,percentage of CD107a+ NK cells,NKG2A+/NKG2C− NK cells; Trial 6,0.92%
same,percentage of IFNG+ NK cells,NKG2A+/NKG2C− NK cells; Trial 6,0.05%
same,percentage of TNF+ NK cells,NKG2A+/NKG2C− NK cells; Trial 6,0.05%
same,percentage of CCL3+ NK cells,NKG2A−/NKG2C+ NK cells; Trial 1,76.7%
same,percentage of CD107+ NK cells,NKG2A−/NKG2C+ NK cells; Trial 1,74.1%
same,percentage of IFNG+ NK cells,NKG2A−/NKG2C+ NK cells; Trial 1,64.1%
same,percentage of TNF+ NK cells,NKG2A−/NKG2C+ NK cells; Trial 1,48.5%
same,percentage of CCL3+ NK cells,NKG2A−/NKG2C+ NK cells; Trial 2,92%
same,percentage of CD107+ NK cells,NKG2A−/NKG2C+ NK cells; Trial 2,87%
same,percentage of IFNG+ NK cells,NKG2A−/NKG2C+ NK cells; Trial 2,79.8%
same,percentage of TNF+ NK cells,NKG2A−/NKG2C+ NK cells; Trial 2,62.5%
same,percentage of CCL3+ NK cells,NKG2A−/NKG2C+ NK cells; Trial 3,85.4%
same,percentage of CD107+ NK cells,NKG2A−/NKG2C+ NK cells; Trial 3,85.3%
same,percentage of IFNG+ NK cells,NKG2A−/NKG2C+ NK cells; Trial 3,78.1%
same,percentage of TNF+ NK cells,NKG2A−/NKG2C+ NK cells; Trial 3,61.4%
same,percentage of CCL3+ NK cells,NKG2A−/NKG2C+ NK cells; Trial 4,69%
same,percentage of CD107+ NK cells,NKG2A−/NKG2C+ NK cells; Trial 4,73.4%
same,percentage of IFNG+ NK cells,NKG2A−/NKG2C+ NK cells; Trial 4,59.7%
same,percentage of TNF+ NK cells,NKG2A−/NKG2C+ NK cells; Trial 4,50.4%
same,percentage of CCL3+ NK cells,NKG2A−/NKG2C+ NK cells; Trial 5,79.6%
same,percentage of CD107+ NK cells,NKG2A−/NKG2C+ NK cells; Trial 5,79.9%
same,percentage of IFNG+ NK cells,NKG2A−/NKG2C+ NK cells; Trial 5,72.5%
same,percentage of TNF+ NK cells,NKG2A−/NKG2C+ NK cells; Trial 5,66.3%
same,percentage of CCL3+ NK cells,NKG2A−/NKG2C+ NK cells; Trial 6,56.6%
same,percentage of CD107+ NK cells,NKG2A−/NKG2C+ NK cells; Trial 6,63.2%
same,percentage of IFNG+ NK cells,NKG2A−/NKG2C+ NK cells; Trial 6,45.9%
same,percentage of TNF+ NK cells,NKG2A−/NKG2C+ NK cells; Trial 6,35.5%
same,percentage CCL3+ NK cells,NKG2A−/NKG2C− NK cells; Trial 1,31.4%
same,percentage CD107+ NK cells,NKG2A−/NKG2C− NK cells; Trial 1,24.4%
same,percentage TNF+ NK cells,NKG2A−/NKG2C− NK cells; Trial 1,3.46%
same,percentage of IFNG+ NK cells,NKG2A−/NKG2C− NK cells; Trial 1,15.5%
same,percentage CCL3+ NK cells,NKG2A−/NKG2C− NK cells; Trial 2,54%
same,percentage CD107+ NK cells,NKG2A−/NKG2C− NK cells; Trial 2,33.4%
same,percentage TNF+ NK cells,NKG2A−/NKG2C− NK cells; Trial 2,7.41%
same,percentage of IFNG+ NK cells,NKG2A−/NKG2C− NK cells; Trial 2,22.8%
same,percentage CCL3+ NK cells,NKG2A−/NKG2C− NK cells; Trial 3,46.1%
same,percentage CD107+ NK cells,NKG2A−/NKG2C− NK cells; Trial 3,43.2%
same,percentage TNF+ NK cells,NKG2A−/NKG2C− NK cells; Trial 3,13.6%
same,percentage of IFNG+ NK cells,NKG2A−/NKG2C− NK cells; Trial 3,36.7%
same,percentage CCL3+ NK cells,NKG2A−/NKG2C− NK cells; Trial 4,30.8%
same,percentage CD107+ NK cells,NKG2A−/NKG2C− NK cells; Trial 4,26.4%
same,percentage TNF+ NK cells,NKG2A−/NKG2C− NK cells; Trial 4,8.21%
same,percentage of IFNG+ NK cells,NKG2A−/NKG2C− NK cells; Trial 4,18.7%
same,percentage CCL3+ NK cells,NKG2A−/NKG2C− NK cells; Trial 5,23.8%
same,percentage CD107+ NK cells,NKG2A−/NKG2C− NK cells; Trial 5,17.9%
same,percentage TNF+ NK cells,NKG2A−/NKG2C− NK cells; Trial 5,4.32%
same,percentage of IFNG+ NK cells,NKG2A−/NKG2C− NK cells; Trial 5,12.1%
same,percentage CCL3+ NK cells,NKG2A−/NKG2C− NK cells; Trial 6,21.4%
same,percentage CD107+ NK cells,NKG2A−/NKG2C− NK cells; Trial 6,19%
same,percentage TNF+ NK cells,NKG2A−/NKG2C− NK cells; Trial 6,3.8%
same,percentage of IFNG+ NK cells,NKG2A−/NKG2C− NK cells; Trial 6,9.39%
